US10954253B2, “1,2-dihydro-3H-pyrazolo[3,4-d]pyrimidin-3-one derivative as Wee1 inhibitor” (SHIJIAZHUANG SAGACITY NEW DRUG DEVELOPMENT CO., LTD., priority 2017, dated 2021)
≈ marks a conversion by molar mass, not a printed value. Where two headings read alike, the source gives them in different places.

How the values were obtained:
[1] = Pharmacokinetic evaluation in BALB/c mice after intravenous and oral administration; assay type: in vivo; conditions: mouse, plasma, BALB/c mice (female), single intravenous injection and oral administration; for clearance: read-out: Clearance rate; for AUC: read-out: Concentration integral AUC; for half-life: read-out: Half-life T1/2 (converted); for bioavailability: read-out: bioavailability F
Procedure: Experimental objective: pharmacokinetics evaluation of the compound in BALB/c nude mice.
The rodent pharmacological characteristics of the compound after intravenous administration and oral administration were tested by a standard protocol, the candidate compound in the experiment was formulated into a clear solution, and the mice were administered by a single intravenous injection and oral administration. The intravenous and oral vehicles are a certain proportion of aqueous hydroxypropyl 3-cyclodextrin or physiological saline solution.

[2] = Tissue distribution (PK) in BALB/c nude mice bearing human colon cancer LoVo xenografts; assay type: in vivo; conditions: mouse, LoVo xenograft mice, oral 40 mg/kg twice a day for three weeks, after last administration
Procedure: (1) In vivo PD study of the compound used on tumors of human colon cancer LoVo cells subcutaneously xenografted to BALB/c nude mice model
Experimental method: the experimental animals used were BALB/c nude mice (provided by Shanghai Xipuer-Beikai Experimental animal CO., Ltd), 6-8 weeks old, weighting 18-22 g.
Human colon cancer LoVo cells, monolayer-cultured in vitro, culturing condition was Ham's F-12 medium supplemented with 10% fetal bovine serum, 100 U/mL penicillin, 100 μg/mL streptomycin and 2 mM glutamine, 37° C., 5% CO2. Conventional digestion treatment passage was done with trypsin-EDTA twice a week. When the cell saturation reached 80%-90%, the cells were collected, counted, and inoculated. 0.1 mL (10×106) of LoVo cells were subcutaneously inoculated into the right back of each nude mouse, and group administration was started when the average tumor volume reached 213 mm^3. The administration mode was oral administration, 40 mg/kg twice a day for three consecutive weeks.
After the last administration of the experiment, a portion of plasma, tumor, intestine, brain, lung, liver and pancreas was collected from the number 1-2 animals after 0.5 h of administration, and quick-froze for PK detection; a portion of plasma, tumor, intestine, brain, lung, liver and pancreas was collected from the number 3-4 animals after 2 h of administration, and quick-froze for PK detection; a portion of plasma, tumor, intestine, brain, lung, liver and pancreas was collected from the number 5-6 animals after 8 h of administration, and quick-froze for PK detection. The tumor, intestine, brain, lung, liver and pancreas were weighted separately and added 9 times volumes of homogenate MeOH/15 mM PBS (1:2, v:v) for homogenization. 20 μL sample was added into 300 μL of the stop buffer including internal standard for protein precipitation, and shaked to mix well. The mixture was centrifuged at 13,000 rpm for 10 minutes at 20-25° C., and 3 μL of the supernatant was taken for LCMS analysis.

[3] = Thermodynamic solubility determination; assay type: physicochemical; conditions: for solubility at 24 h: buffer, 22 °C, aqueous buffer, thermodynamic from solid
Procedure: No less than 2 mg sample powder was weighted in a Whatman miniuniprep vial. If the experiment required to test the thermodynamic solubility of the sample in multiple buffer solutions, then separate vial was required for each test.
[…] After addition of the buffer, the Whatman filter cap of the miniuniprep is mounted and pressed until it was above the liquid level to allow the filter to contact with the buffer solution during shaking. The solubility sample was vortexed for 2 minutes. And the solution phenomenon was recorded. Then the vial was shaked at room temperature (about 22 to 25° C.) for 24 hours at a speed of 550 rpm. And the Whatman Miniunipreps filter cap was pressed to bottom to obtain the filtrate of the solubility solution of the sample. All sample vials should conduct filtration for the insoluble matter before and after and osmotic phenomenon. The […] was diluted 50 times to obtain a sample dilution.
Three UV standard solutions were injected from low to high concentrations into HPLC, and then dilution and supernatant of the test compounds were injected. The sample was injected and tested twice. Integration was conducted to the UV peaks. The standard curve was established and the thermodynamic solubility of the sample was calculated.

[4] = molecular target: Wee1 (Homo sapiens (Human), UniProt P30291); assay: In vitro enzymatic inhibitory activity (33P-ATP filter-binding kinase assay, MBP substrate); assay type: biochemical; conditions: Wee-1 150 nM, MBP 20 μM
Method in brief: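 Wee1 at 150 nM with 20 μM MBP substrate in pH 7.5 HEPES buffer (10 mM MgCl2, 2 mM DTT, 1% DMSO) was preincubated 20 min at RT with compounds in a 10-point 3-fold dilution series. The reaction was started with ^33P-ATP and run 2 h at RT. Kinase activity was measured by filter binding.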

[5] = pH 6.5, shaken 24 hours at room temperature, read-out: Solubility (μM) pH 6.5
[6] = pH 7.4, shaken 24 hours at room temperature, read-out: Solubility (μM) pH 7.4

Chain of Wee1 (P30291 whole entry): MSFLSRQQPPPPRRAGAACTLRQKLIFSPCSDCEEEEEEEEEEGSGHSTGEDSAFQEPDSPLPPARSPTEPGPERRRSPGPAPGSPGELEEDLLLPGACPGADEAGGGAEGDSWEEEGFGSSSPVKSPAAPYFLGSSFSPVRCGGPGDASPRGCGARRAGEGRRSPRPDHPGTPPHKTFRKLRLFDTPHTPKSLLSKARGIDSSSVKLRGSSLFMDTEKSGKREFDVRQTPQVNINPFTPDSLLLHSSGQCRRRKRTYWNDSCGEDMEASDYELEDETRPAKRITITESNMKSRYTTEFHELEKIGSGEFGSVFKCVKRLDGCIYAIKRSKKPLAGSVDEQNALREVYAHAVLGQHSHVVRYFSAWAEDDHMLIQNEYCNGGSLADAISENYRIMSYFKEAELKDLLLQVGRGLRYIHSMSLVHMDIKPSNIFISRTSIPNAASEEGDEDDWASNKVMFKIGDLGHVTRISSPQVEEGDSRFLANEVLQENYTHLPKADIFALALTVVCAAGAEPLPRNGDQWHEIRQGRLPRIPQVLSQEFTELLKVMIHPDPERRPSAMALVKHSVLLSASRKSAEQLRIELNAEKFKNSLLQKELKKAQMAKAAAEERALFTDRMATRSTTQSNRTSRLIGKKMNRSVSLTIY

clearance [1]	AUC [1]	half-life [1]	bioavailability [1]	AUC(0-t) ([2]; Colon)	Cmax ([2]; Colon)	Tmax ([2]; Colon)	AUC(0-t) ([2]; liver)	Cmax ([2]; liver)	Tmax ([2]; liver)	AUC(0-t) ([2]; lung)	Cmax ([2]; lung)	Tmax ([2]; lung)	AUC(0-t) ([2]; pancreas)	Cmax ([2]; pancreas)	Tmax ([2]; pancreas)	AUC(0-t) ([2]; plasma)	Cmax ([2]; plasma)	Tmax ([2]; plasma)	IC50 [4]	SMILES	other results
85.7 mL/min/kg	1.2 µM·h	0.25 h	31%	225 µM·h	238 µM	0.5 h	117 µM·h	38.1 µM	0.5 h	36.5 µM·h	17.2 µM	0.5 h	55.5 µM·h	35.6 µM	0.5 h	6.97 µM·h	3.07 µM	0.5 h	–	C=CCn1c(=O)c2cnc(Nc3ccc(N4CCN(C)CC4)cc3)nc2n1-c1cccc(C(C)(C)O)n1 [AZD1775, reference compound]	AUC(0-t) ([2]; tumer (tumor)): 15.3 µM·h; Cmax ([2]; tumer (tumor)): 3.85 µM; Tmax ([2]; tumer (tumor)): 2 h; solubility at 24 h [3, 5]: 434 µM (≈ 217 µg/mL); solubility at 24 h [3, 6]: 68.8 µM (≈ 34.4 µg/mL)
57.1 mL/min/kg	1.73 µM·h	1.7 h	35.3%	–	–	–	–	–	–	–	–	–	–	–	–	–	–	–	31.5 nM	C=CCn1c(=O)c2cnc(Nc3ccc(N4CCC5(CCN(C)CC5)CC4)cc3)nc2n1-c1cccc(C(=O)N(C)C)n1 [Embodiment 15, 6-(2-allyl-6-((4-(9-methyl-3,9-diazaspiro[5.5]undecan-3-yl)phenyl)amino)-3-oxo-2,3-dihydro-1H-pyrazolo[3,4-d]pyrimidin-1-yl)-N,N-dimethylpicolinamide]	–
51 mL/min/kg	2.15 µM·h	1.49 h	32.4%	–	–	–	–	–	–	–	–	–	–	–	–	–	–	–	13.4 nM	C=CCn1c(=O)c2cnc(Nc3ccc(N4CCC5(CCN(C)CC5)CC4)cc3)nc2n1-c1cccc(C(C)(C)O)n1 [Embodiment 29, 2-allyl-1-(6-(2-hydroxypropan-2-yl)pyridin-2-yl)-6-((4-(9-methyl-3,9-diazaspiro[5.5]undecan-3-yl)phenyl)amino)-1H-pyrazolo[3,4-d]pyrimidin-3(2H)-one]	solubility at 24 h [3, 5]: 1470 µM (≈ 835 µg/mL); solubility at 24 h [3, 6]: 1050 µM (≈ 595 µg/mL); solubility in water ([3]; in words, compared to AZD1775, pH=6.5 and pH=7.4): excellent solubility in water
–	–	–	–	402 µM·h	135 µM	0.5 h	257 µM·h	67.7 µM	2 h	74.7 µM·h	14.6 µM	2 h	253 µM·h	49.3 µM	2 h	14.2 µM·h	4.27 µM	2 h	58.8 nM	C=CCn1c(=O)c2cnc(Nc3ccc(N4CCC5(CCN(C(C)=O)CC5)CC4)cc3)nc2n1-c1cccc(C(C)(C)O)n1 [Embodiment 30, 6-((4-(9-acetyl-3,9-diazaspiro[5.5]undecan-3-yl)phenyl)amino)-2-allyl-1-(6-(2-hydroxypropan-2-yl)pyridin-2-yl)-1H-pyrazolo[3,4-d]pyrimidin-3(2H)-one]	AUC(0-t) ([2]; Brain): 2.12 µM·h; Cmax ([2]; Brain): 0.959 µM; Tmax ([2]; Brain): 0.5 h; AUC(0-t) ([2]; tumer (tumor)): 37.3 µM·h; Cmax ([2]; tumer (tumor)): 5.42 µM; Tmax ([2]; tumer (tumor)): 8 h
23 mL/min/kg	5.59 µM·h	1.81 h	45.1%	–	–	–	–	–	–	–	–	–	–	–	–	–	–	–	12.1 nM	C=CCn1c(=O)c2cnc(Nc3ccc(N4CCC5(CCN(C)CC5)CC4)cc3)nc2n1-c1cccc(C2(F)COC2)n1 [Embodiment 43, 2-allyl-1-(6-(3-fluorooxetan-3-yl)pyridin-2-yl)-6-((4-(9-methyl-3,9-diazaspiro[5.5]undecan-3-yl)phenyl)amino)-1H-pyrazolo[3,4-d]pyrimidin-3(2H)-one]	–
